# Measurements as given in ChEMBL document CHEMBL4138123, “Design, synthesis and biological evaluation of novel pyrazolochalcones as potential modulators of PI3K/Akt/mTOR pathway and inducers of apoptosis in breast cancer cells” (Eur J Med Chem, 2017).
# Assays:
# SR [1] = assay: Cytotoxicity against human SR cells assessed as growth inhibition after 48 hrs by sulforhodamine B assay; assay type: functional; conditions: for CC50: read-out: LC50 (the source's name)
# HL-60(TB) [2] = assay: Cytotoxicity against human HL-60(TB) cells assessed as cell growth at 100 uM after 48 hrs by sulforhodamine B assay relative to control; assay type: functional; conditions: HL-60, 48 h, read-out: Activity
# 786-0 [3] = assay: Cytotoxicity against human 786-0 cells assessed as cell growth at 100 uM after 48 hrs by sulforhodamine B assay relative to control; assay type: functional; conditions: 786-0, 48 h, read-out: Activity
# SF-539 = assay: Cytotoxicity against human SF539 cells assessed as growth inhibition after 48 hrs by sulforhodamine B assay; assay type: functional; conditions: SF-539, 48 h
# M14 [4] = assay: Cytotoxicity against human M14 cells assessed as cell growth at 0.1 uM after 48 hrs by sulforhodamine B assay relative to control; assay type: functional; conditions: M14, 48 h, read-out: Activity
# BT-549 [5] = assay: Cytotoxicity against human BT549 cells assessed as cell growth at 0.01 uM after 48 hrs by sulforhodamine B assay relative to control; assay type: functional; conditions: BT-549, 48 h, read-out: Activity
# SN12C = assay: Cytotoxicity against human SN12C cells assessed as cell growth at 0.01 uM after 48 hrs by sulforhodamine B assay relative to control; assay type: functional; conditions: read-out: Activity
# NCI-H23 = assay: Cytotoxicity against human NCI-H23 cells assessed as cell growth at 100 uM after 48 hrs by sulforhodamine B assay relative to control; assay type: functional; conditions: NCI-H23, 48 h, read-out: Activity
# RXF 393 = assay: Cytotoxicity against human RXF393 cells assessed as cell growth at 10 uM after 48 hrs by sulforhodamine B assay relative to control; assay type: functional; conditions: RXF 393, 48 h, read-out: Activity
# HOP-62 = assay: Cytotoxicity against human HOP62 cells assessed as cell growth at 1 uM after 48 hrs by sulforhodamine B assay relative to control; assay type: functional; conditions: HOP-62, 48 h, read-out: Activity
# Hs-578T = assay: Cytotoxicity against human Hs 578T cells assessed as cell growth at 0.1 uM after 48 hrs by sulforhodamine B assay relative to control; assay type: functional; conditions: read-out: Activity
# SK-MEL-28 = assay: Cytotoxicity against human SK-MEL-28 cells assessed as cell growth at 1 uM after 48 hrs by sulforhodamine B assay relative to control; assay type: functional; conditions: SK-MEL-28, 48 h, read-out: Activity
# HL-60(TB) [6] = assay: Cytotoxicity against human HL-60(TB) cells assessed as cell growth at 0.1 uM after 48 hrs by sulforhodamine B assay relative to control; assay type: functional; conditions: HL-60, 48 h, read-out: Activity
# DU-145 = assay: Cytotoxicity against human DU145 cells assessed as cell growth at 0.1 uM after 48 hrs by sulforhodamine B assay relative to control; assay type: functional; conditions: DU-145, 48 h, read-out: Activity
# SR [7] = assay: Cytotoxicity against human SR cells assessed as cell growth at 10 uM after 48 hrs by sulforhodamine B assay relative to control; assay type: functional; conditions: read-out: Activity
# NCI-H522 [8] = assay: Cytotoxicity against human NCI-H522 cells assessed as cell growth at 100 uM after 48 hrs by sulforhodamine B assay relative to control; assay type: functional; conditions: NCI-H522, 48 h, read-out: Activity
# M14 [9] = assay: Cytotoxicity against human M14 cells assessed as cell growth at 100 uM after 48 hrs by sulforhodamine B assay relative to control; assay type: functional; conditions: M14, 48 h, read-out: Activity
# 786-0 [10] = assay: Cytotoxicity against human 786-0 cells assessed as cell growth at 0.01 uM after 48 hrs by sulforhodamine B assay relative to control; assay type: functional; conditions: 786-0, 48 h, read-out: Activity
# BT-549 [11] = assay: Cytotoxicity against human BT549 cells assessed as growth inhibition after 48 hrs by sulforhodamine B assay; assay type: functional; conditions: BT-549, 48 h
# ACHN = assay: Cytotoxicity against human ACHN cells assessed as growth inhibition after 48 hrs by sulforhodamine B assay; assay type: functional
# M14 [12] = assay: Cytotoxicity against human M14 cells assessed as cell growth at 1 uM after 48 hrs by sulforhodamine B assay relative to control; assay type: functional; conditions: M14, 48 h, read-out: Activity
# RPMI-8226 = assay: Cytotoxicity against human RPMI8226 cells assessed as cell growth at 100 uM after 48 hrs by sulforhodamine B assay relative to control; assay type: functional; conditions: RPMI-8226, 48 h, read-out: Activity
# SW-620 = assay: Cytotoxicity against human SW620 cells assessed as cell growth at 100 uM after 48 hrs by sulforhodamine B assay relative to control; assay type: functional; conditions: SW-620, 48 h, read-out: Activity
# HT-29 [13] = assay: Cytotoxicity against human HT-29 cells assessed as growth inhibition after 48 hrs by sulforhodamine B assay; assay type: functional; conditions: HT-29, 48 h
# Malme-3M = assay: Cytotoxicity against human MALME-3M cells assessed as growth inhibition after 48 hrs by sulforhodamine B assay; assay type: functional
# NCI/ADR-RES = assay: Cytotoxicity against human NCI/ADR-RES cells assessed as cell growth at 0.1 uM after 48 hrs by sulforhodamine B assay relative to control; assay type: functional; conditions: read-out: Activity
# MDA-MB-231 = assay: Cytotoxicity against human MDA-MB-231 cells assessed as growth inhibition after 48 hrs by MTT assay; assay type: functional, cell-based; conditions: MDA-MB-231, 48 h
# IGROV-1 = assay: Cytotoxicity against human IGROV1 cells assessed as cell growth at 100 uM after 48 hrs by sulforhodamine B assay relative to control; assay type: functional; conditions: IGROV-1, 48 h, read-out: Activity
# OVCAR-5 = assay: Cytotoxicity against human OVCAR5 cells assessed as growth inhibition after 48 hrs by sulforhodamine B assay; assay type: functional; conditions: OVCAR-5, 48 h
# UACC-257 = assay: Cytotoxicity against human UACC257 cells assessed as growth inhibition after 48 hrs by sulforhodamine B assay; assay type: functional; conditions: UACC-257, 48 h
# HT-29 [14] = assay: Cytotoxicity against human HT-29 cells assessed as cell growth at 1 uM after 48 hrs by sulforhodamine B assay relative to control; assay type: functional; conditions: HT-29, 48 h, read-out: Activity
# U-251 = assay: Cytotoxicity against human U251 cells assessed as cell growth at 0.1 uM after 48 hrs by sulforhodamine B assay relative to control; assay type: functional; conditions: U-251, 48 h, read-out: Activity
# NCI-H522 [15] = assay: Cytotoxicity against human NCI-H522 cells assessed as cell growth at 10 uM after 48 hrs by sulforhodamine B assay relative to control; assay type: functional; conditions: NCI-H522, 48 h, read-out: Activity
# NCI-H226 = assay: Cytotoxicity against human NCI-H226 cells assessed as cell growth at 0.01 uM after 48 hrs by sulforhodamine B assay relative to control; assay type: functional; conditions: NCI-H226, 48 h, read-out: Activity
# CCRF-CEM = assay: Cytotoxicity against human CCRF-CEM cells assessed as cell growth at 1 uM after 48 hrs by sulforhodamine B assay relative to control; assay type: functional; conditions: read-out: Activity
structure (smiles),measurement,setting,value
COc1ccc(-c2cc(/C=C/C(=O)c3ccc(OC)c(OC)c3)[nH]n2)cc1,GI50,SR [1],0.67 µM
same,TGI,SR [1],3.74 µM
same,CC50,SR [1],> 100 µM
same,growth at 100 µM,HL-60(TB) [2],-43%
same,growth at 100 µM,786-0 [3],-96%
same,GI50,SF-539,1.27 µM
same,LC50 (concentration killing 50% of cells),SF-539,5.38 µM
same,TGI,SF-539,2.61 µM
same,growth at 0.1 µM,M14 [4],105%
same,growth at 0.01 µM,BT-549 [5],100%
same,growth at 0.01 µM,SN12C,95%
same,growth at 100 µM,NCI-H23,-73%
same,growth at 10 µM,RXF 393,-82%
same,growth at 1 µM,HOP-62,94%
same,growth at 0.1 µM,Hs-578T,92%
same,growth at 1 µM,SK-MEL-28,90%
same,growth at 0.1 µM,HL-60(TB) [6],104%
same,growth at 0.1 µM,DU-145,109%
same,growth at 10 µM,SR [7],-29%
same,growth at 100 µM,NCI-H522 [8],-81%
same,growth at 100 µM,M14 [9],-99%
same,growth at 0.01 µM,786-0 [10],100%
same,GI50,BT-549 [11],1.68 µM
same,LC50 (concentration killing 50% of cells),BT-549 [11],7.4 µM
same,TGI,BT-549 [11],3.53 µM
same,GI50,ACHN,1.68 µM
same,LC50,ACHN,8.71 µM
same,TGI,ACHN,3.83 µM
same,growth at 1 µM,M14 [12],97%
same,growth at 100 µM,RPMI-8226,-62%
same,growth at 100 µM,SW-620,-55%
same,GI50,HT-29 [13],1.55 µM
same,LC50,HT-29 [13],7.68 µM
same,TGI,HT-29 [13],3.45 µM
same,GI50,Malme-3M,1.62 µM
same,LC50,Malme-3M,7.38 µM
same,TGI,Malme-3M,3.45 µM
same,growth at 0.1 µM,NCI/ADR-RES,107%
same,IC50,MDA-MB-231,0.6 µM
same,growth at 100 µM,IGROV-1,-84%
same,GI50,OVCAR-5,1.65 µM
same,LC50,OVCAR-5,10.6 µM
same,TGI,OVCAR-5,4.09 µM
same,GI50,UACC-257,1.73 µM
same,LC50,UACC-257,7.72 µM
same,TGI,UACC-257,3.65 µM
same,growth at 1 µM,HT-29 [14],77%
same,growth at 0.1 µM,U-251,84%
same,growth at 10 µM,NCI-H522 [15],-68%
same,growth at 0.01 µM,NCI-H226,83%
same,growth at 1 µM,CCRF-CEM,63%
COc1ccc(-c2cc(/C=C/C(=O)c3ccc(N)cc3)[nH]n2)cc1,GI50,SR [1],0.79 µM
same,TGI,SR [1],6.09 µM
same,CC50,SR [1],60.1 µM
same,growth at 100 µM,HL-60(TB) [2],-47%
same,growth at 100 µM,786-0 [3],-57%
same,GI50,SF-539,1.47 µM
same,LC50 (concentration killing 50% of cells),SF-539,8.25 µM
same,TGI,SF-539,3.48 µM
same,growth at 0.1 µM,M14 [4],103%
same,growth at 0.01 µM,BT-549 [5],92%
same,growth at 0.01 µM,SN12C,93%
same,growth at 100 µM,NCI-H23,-62%
same,growth at 10 µM,RXF 393,-47%
same,growth at 1 µM,HOP-62,102%
same,growth at 0.1 µM,Hs-578T,97%
same,growth at 1 µM,SK-MEL-28,91%
same,growth at 0.1 µM,HL-60(TB) [6],97%
same,growth at 0.1 µM,DU-145,100%
same,growth at 10 µM,SR [7],-12%
same,growth at 100 µM,NCI-H522 [8],-75%
same,growth at 100 µM,M14 [9],-71%
same,growth at 0.01 µM,786-0 [10],96%
same,GI50,BT-549 [11],1.74 µM
same,LC50 (concentration killing 50% of cells),BT-549 [11],36.3 µM
same,TGI,BT-549 [11],4.78 µM
same,GI50,ACHN,2.01 µM
same,LC50,ACHN,49.2 µM
same,TGI,ACHN,10.6 µM
same,growth at 1 µM,M14 [12],105%
same,growth at 100 µM,RPMI-8226,-67%
same,growth at 100 µM,SW-620,-58%
same,GI50,HT-29 [13],2.75 µM
same,LC50,HT-29 [13],74.1 µM
same,TGI,HT-29 [13],8.11 µM
same,GI50,Malme-3M,2.18 µM
same,LC50,Malme-3M,28.8 µM
same,TGI,Malme-3M,6.22 µM
same,growth at 0.1 µM,NCI/ADR-RES,99%
same,IC50,MDA-MB-231,1.7 µM
same,growth at 100 µM,IGROV-1,-67%
same,GI50,OVCAR-5,2.06 µM
same,LC50,OVCAR-5,16 µM
same,TGI,OVCAR-5,4.92 µM
same,GI50,UACC-257,1.9 µM
same,LC50,UACC-257,9.36 µM
same,TGI,UACC-257,4.21 µM
same,growth at 1 µM,HT-29 [14],97%
same,growth at 0.1 µM,U-251,90%
same,growth at 10 µM,NCI-H522 [15],-70%
same,growth at 0.01 µM,NCI-H226,102%
same,growth at 1 µM,CCRF-CEM,61%
